± gives the standard deviation of the averaged measurements.
Legend:
LAPATINIB = compound: CS(=O)(=O)CCNCc1ccc(-c2ccc3ncnc(Nc4ccc(OCc5cccc(F)c5)c(Cl)c4)c3c2)o1 [LAPATINIB]; assay: surviving fraction relative to DMSO-only wells; higher = less growth inhibition; settings: exposure time: 5 days
Procedure, shortened: (§1)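 Viability values are CellTiter-Glo luminescence readings, given as surviving fraction against the median of DMSO-only wells. The readings were taken after 10 minutes at room temperature, following five days of continuous exposure to inhibitors at 0.5, 1, 5, 10, 50, 100, 500 and 1000 nM that began 24 hours after log-phase tumour cell lines were seeded at 250–500 cells per well in 384-well plates. Every line was screened three times and kept only if replicate Pearson r >0.7 and median Z' >0.3.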

FLAVOPIRIDOL = compound: CN1CC[C@H](c2c(O)cc(O)c3c(=O)cc(-c4ccccc4Cl)oc23)[C@H](O)C1 [FLAVOPIRIDOL]; assay: as above; settings: exposure time: 5 days
Procedure, shortened: as §1

Row | Test System | surviving fraction (LAPATINIB; 0.5 nM) | surviving fraction (LAPATINIB; 1 nM) | surviving fraction (LAPATINIB; 5 nM) | surviving fraction (LAPATINIB; 10 nM) | surviving fraction (LAPATINIB; 50 nM) | surviving fraction (LAPATINIB; 100 nM) | surviving fraction (LAPATINIB; 500 nM) | surviving fraction (LAPATINIB; 1000 nM) | surviving fraction (FLAVOPIRIDOL; 0.5 nM) | surviving fraction (FLAVOPIRIDOL; 1 nM) | surviving fraction (FLAVOPIRIDOL; 5 nM) | surviving fraction (FLAVOPIRIDOL; 10 nM) | surviving fraction (FLAVOPIRIDOL; 50 nM) | surviving fraction (FLAVOPIRIDOL; 100 nM) | surviving fraction (FLAVOPIRIDOL; 500 nM) | surviving fraction (FLAVOPIRIDOL; 1000 nM)
1 | SCC47 HEADNECK | 1.09 ± 0.1 | 1.1 ± 0.016 | 1.09 ± 0.011 | 1.18 ± 0.033 | 1.05 ± 0.044 | 1.05 ± 0.072 | 0.82 ± 0.041 | 0.705 ± 0.053 | 1.18 ± 0.052 | 1.2 ± 0.061 | 1.23 ± 0.093 | 1.15 ± 0.078 | 0.665 ± 0.013 | 0.153 ± 0.043 | 0.039 ± 0.0017 | 0.0353 ± 0.0029
2 | HELA CERVIX | 1.08 ± 0.1 | 1.23 ± 0.065 | 1.05 ± 0.043 | 1.04 ± 0.038 | 1.1 ± 0.029 | 1.15 ± 0.12 | 1.16 ± 0.09 | 1.16 ± 0.037 | 0.987 ± 0.041 | 0.962 ± 0.045 | 1.03 ± 0.086 | 0.936 ± 0.018 | 1.16 ± 0.053 | 0.691 ± 0.027 | 0.0347 ± 0.001 | 0.0268 ± 0.00029
3 | MDAMB231 BREAST | 0.9471 ± 0.0072 | 1.01 ± 0.032 | 0.986 ± 0.029 | 0.9838 ± 0.0088 | 0.96 ± 0.019 | 1.02 ± 0.012 | 1.013 ± 0.0062 | 1.01 ± 0.021 | 0.99 ± 0.022 | 0.9902 ± 0.0098 | 1.02 ± 0.042 | 0.995 ± 0.039 | 0.833 ± 0.018 | 0.372 ± 0.028 | 0.0403 ± 0.0017 | 0.0366 ± 0.0017
4 | PCI30 HEADNECK | 1.06 ± 0.033 | 1.05 ± 0.06 | 1.05 ± 0.052 | 1.06 ± 0.084 | 1.14 ± 0.063 | 1.18 ± 0.062 | 1.01 ± 0.069 | 0.989 ± 0.071 | 1.02 ± 0.019 | 1.02 ± 0.038 | 1.15 ± 0.031 | 1.13 ± 0.029 | 0.701 ± 0.028 | 0.085 ± 0.0053 | 0.032 ± 0.0017 | 0.0303 ± 0.00058
5 | RDES SOFT TISSUE |  | 1.21 ± 0.12 | 1.14 ± 0.11 | 1.13 ± 0.13 | 1.09 ± 0.053 | 1.19 ± 0.11 | 1.41 ± 0.18 | 1.55 ± 0.19 | 1.36 ± 0.11 | 1.3 ± 0.12 | 1.39 ± 0.07 | 1.44 ± 0.059 | 1.66 ± 0.12 | 0.945 ± 0.2 | 0.0467 ± 0.0025 | 0.0383 ± 0.0025
6 | SCC003 HEADNECK | 1.08 ± 0.05 | 1.13 ± 0.054 | 1.06 ± 0.067 | 1.11 ± 0.079 | 0.963 ± 0.011 | 0.964 ± 0.054 | 0.757 ± 0.015 | 0.64 ± 0.069 | 1.06 ± 0.061 | 1.1 ± 0.083 | 1.12 ± 0.055 | 0.987 ± 0.084 | 0.667 ± 0.032 | 0.392 ± 0.14 | 0.0627 ± 0.0064 | 0.0573 ± 0.0032
7 | A549 LUNG | 1.038 ± 0.0095 | 1.14 ± 0.044 | 1.06 ± 0.02 | 1.07 ± 0.016 | 1.02 ± 0.043 | 1.06 ± 0.05 | 1 ± 0.041 | 1.02 ± 0.036 | 1.04 ± 0.011 | 1.05 ± 0.015 | 1.06 ± 0.013 | 1.05 ± 0.018 | 1.18 ± 0.028 | 0.379 ± 0.11 | 0.0697 ± 0.0058 | 0.0687 ± 0.0038
8 | SG28 HEADNECK | 0.979 ± 0.1 | 1.07 ± 0.03 | 0.851 ± 0.11 | 1.03 ± 0.042 | 0.764 ± 0.043 | 0.775 ± 0.079 | 0.599 ± 0.057 | 0.563 ± 0.021 | 1.11 ± 0.096 | 1.1 ± 0.023 | 1.02 ± 0.081 | 1.04 ± 0.099 | 0.594 ± 0.089 | 0.0495 ± 0.0064 | 0.0315 ± 0.00071 | 0.032 ± 0.0028
9 | MDAMB436 BREAST | 0.893 ± 0.14 | 0.996 ± 0.13 | 0.834 ± 0.091 | 0.896 ± 0.03 | 1.02 ± 0.072 | 1.03 ± 0.12 | 1.05 ± 0.23 | 1.04 ± 0.083 | 0.998 ± 0.042 | 0.991 ± 0.071 | 1.06 ± 0.14 | 0.941 ± 0.036 | 0.556 ± 0.026 | 0.183 ± 0.024 | 0.185 ± 0.0025 | 0.182 ± 0.0028
10 | MDAMB157 BREAST | 1 ± 0.11 | 0.991 ± 0.11 | 1.09 ± 0.034 | 1.04 ± 0.095 | 1.01 ± 0.064 | 1.008 ± 0.0098 | 0.951 ± 0.082 | 0.931 ± 0.041 | 0.999 ± 0.025 | 0.921 ± 0.096 | 0.986 ± 0.073 | 0.927 ± 0.018 | 0.769 ± 0.022 | 0.3 ± 0.027 | 0.0433 ± 0.016 | 0.0383 ± 0.0076
11 | HT1080 SOFT TISSUE | 0.997 ± 0.044 | 1.06 ± 0.013 | 1.02 ± 0.017 | 1.05 ± 0.016 | 1.04 ± 0.016 | 1.02 ± 0.048 | 1.01 ± 0.021 | 1.05 ± 0.076 | 1.05 ± 0.027 | 1.05 ± 0.02 | 1.03 ± 0.029 | 1.016 ± 0.0044 | 0.4973 ± 0.0011 | 0.193 ± 0.024 | 0.061 ± 0.003 | 0.0633 ± 0.0021
12 | CME SYNOVIAL | 1.13 ± 0.2 | 1.4 ± 0.13 | 1.43 ± 0.1 | 1.28 ± 0.12 | 1.26 ± 0.096 | 1.35 ± 0.19 | 1.2 ± 0.059 | 1.14 ± 0.16 | 1.13 ± 0.18 | 1.22 ± 0.07 | 1.23 ± 0.081 | 1.2 ± 0.07 | 0.864 ± 0.053 | 0.25 ± 0.0067 | 0.168 ± 0.004 | 0.228 ± 0.012
13 | U2OS BONE | 1.03 ± 0.031 | 1.034 ± 0.0044 | 1.08 ± 0.014 | 1.08 ± 0.027 | 1.03 ± 0.012 | 1.04 ± 0.024 | 0.9533 ± 0.0085 | 0.938 ± 0.037 | 1.04 ± 0.049 | 1.03 ± 0.042 | 1.1 ± 0.028 | 1.09 ± 0.053 | 0.956 ± 0.017 | 0.112 ± 0.015 | 0.033 ± 0.0017 | 0.03 ± 0.001
14 | H23 LUNG | 1.02 ± 0.071 | 1.1 ± 0.075 | 0.9837 ± 0.0059 | 1.01 ± 0.019 | 0.861 ± 0.039 | 0.834 ± 0.031 | 0.4077 ± 0.0038 | 0.367 ± 0.023 | 1.03 ± 0.034 | 1.05 ± 0.027 | 1.15 ± 0.073 | 1.18 ± 0.079 | 1.54 ± 0.11 | 0.5197 ± 0.005 | 0.0303 ± 0.0015 | 0.026 ± 0.001
15 | CAL72 BONE | 1.13 ± 0.081 | 1.1 ± 0.061 | 1.16 ± 0.083 | 1.11 ± 0.055 | 1.11 ± 0.015 | 1.12 ± 0.096 | 1.02 ± 0.077 | 0.951 ± 0.17 | 1.09 ± 0.1 | 1.06 ± 0.021 | 1.05 ± 0.049 | 0.982 ± 0.04 | 0.649 ± 0.053 | 0.142 ± 0.053 | 0.0577 ± 0.0032 | 0.0577 ± 0.0076
16 | HCC202 BREAST | 1.3 ± 0.2 | 0.845 ± 0.19 | 1.17 ± 0.43 | 0.937 ± 0.17 | 0.905 ± 0.14 | 0.726 ± 0.31 | 0.383 | 0.221 ± 0.029 | 0.988 ± 0.55 | 1.17 ± 0.34 | 1.13 ± 0.22 | 1.06 ± 0.31 | 0.847 ± 0.13 | 0.304 ± 0.012 | 0.0405 ± 0.00071 | 0.0405 ± 0.00071
17 | COLO320DM LARGE INTESTINE | 1.01 ± 0.08 | 1.09 ± 0.016 | 1.14 ± 0.026 | 1.2 ± 0.082 | 1.06 ± 0.015 | 1.15 ± 0.083 | 1.1 ± 0.05 | 1.12 ± 0.075 | 1.1 ± 0.11 | 1.09 ± 0.086 | 1.08 ± 0.14 | 1.01 ± 0.12 | 0.503 ± 0.0073 | 0.0807 ± 0.0055 | 0.0493 ± 0.00076 | 0.0478 ± 0.0036
18 | 93VU HEADNECK | 1.04 ± 0.13 | 1.09 ± 0.11 | 1.07 ± 0.018 | 1.12 ± 0.069 | 0.806 ± 0.021 | 0.827 ± 0.045 | 0.493 ± 0.039 | 0.438 ± 0.041 | 1.04 ± 0.088 | 1.03 ± 0.012 | 1.19 ± 0.066 | 1.12 ± 0.11 | 0.82 ± 0.011 | 0.0713 ± 0.0035 | 0.0237 ± 0.0015 | 0.0217 ± 0.0015
19 | CADOES1 SOFT TISSUE | 0.959 ± 0.045 | 1.06 ± 0.096 | 0.976 ± 0.12 | 0.996 ± 0.16 | 0.958 ± 0.096 | 1.09 ± 0.097 | 1.13 ± 0.052 | 1.13 ± 0.094 | 0.844 ± 0.099 | 0.924 ± 0.062 | 0.843 ± 0.13 | 0.888 ± 0.082 | 0.332 ± 0.062 | 0.146 ± 0.054 | 0.0357 ± 0.0051 | 0.038
20 | YAMATO SYNOVIAL | 1.22 ± 0.066 | 1.31 ± 0.15 | 1.23 ± 0.12 | 1.24 ± 0.077 | 1.25 ± 0.16 | 1.31 ± 0.022 | 1.21 ± 0.16 | 1.13 ± 0.045 | 1.12 ± 0.068 | 1.08 ± 0.053 | 1.25 ± 0.061 | 1.11 ± 0.11 | 0.682 ± 0.082 | 0.306 ± 0.023 | 0.26 ± 0.0092 | 0.29 ± 0.013
21 | HCC1395 BREAST | 0.928 ± 0.083 | 0.972 ± 0.072 | 0.998 ± 0.082 | 0.975 ± 0.16 | 0.919 ± 0.12 | 1.09 ± 0.061 | 1.02 ± 0.083 | 0.993 ± 0.15 | 1 ± 0.21 | 1.13 ± 0.062 | 1.2 ± 0.097 | 1.311 ± 0.006 | 1.3 ± 0.16 | 0.992 ± 0.14 | 0.51 ± 0.36 | 0.419 ± 0.19
